Where “and” joins values, the source holds several entries; their conditions need not be identical. Equal entries are not always repeated.
What was measured:
[1] = test system: free living nematodes in soil; conditions: 24 hour exposure; cited from earlier work
citrus nematode = conditions: 0.5 hour exposure, same concentration; cited from earlier work
Root-Knot larvae (J2) = assay: Effect of nematicides (Oxamyl, Thiodicarb) on Root-Knot larvae (J2) in vitro; parameters: species or system M. incognita; conditions: for Root-Knot larvae (J2) Alive / Root-Knot larvae (J2) Dead: room temperature, one replicate per line; for Root-Knot larvae (J2) Alive / Root-Knot larvae (J2) Dead / Root-Knot larvae (J2) Alive, non-mobile: 2 days; for Root-Knot larvae (J2) Alive, non-mobile: alive larvae given as non-mobile
Protocol: M. incognita eggs collected from tomato cultures by NaOC1 extraction (Hussey and Barker, 1973). Briefly, six to twelve week old infected tomato roots were cut into 1-2 segment. Root segments were shacked vigorously in 200 ml of a 0.5% Na O Cl solution for 4 min. Then, the Na O Cl solution was passed quickly through a 200-mesh (75-μm), nested over a 500-mesh sieve to collect freed eggs. The a 500-mesh sieve with eggs was quickly placed under a stream of cold water to remove residual Na O cl and rinsed several times. About 50 ml queous suspension of eggs was collected and number of eggs per unit volume will be counted. The egg suspension was allowed to sit at room temperature for 4 days. The hatching juveniles were collected and used in the subsequent experiments.
Determine the efficient concentration of nematicides (Oxamyl and Thidiocarb) that kill or suppress Root-Knot Larvae.
M. incognita eggs collected from tomato cultures by NaOC1 extraction (Hussey & Barker, Plant Disease Reporter. 57:1025-1028 (1973)). Egg suspension was incubated at room temperature until larvae were hatched (4-5 days). The juveniles (J2) were counted and evaluated for activity/mobility for the duration of the study. Four different concentrations of both nematicides (Oxamyl and Thiodicarb) were used to assess their efficacy in killing the nematodes. These were untreated control, 200 ug, 1 mg, 2 mg, and 10 mg. Three replicates of the each concentration were mixed with J2 suspensions and incubated at room temperature for 2 days.
We studied the efficiency of Oxamyl; 200 ug/ml and 100 ug/ml in suppression of J2. […] We used 100 ug of Oxamyl in subsequent studies with liposomes.

root-knot nematodes = assay: Nematicidal activity of Oxamyl-liposome formulation on root-knot nematodes; format: in vivo, M. incognita; conditions: where oxamyl was added (oxamyl-liposome test, FIG. 1)
Protocol: Liposomes having an aqueous core and phospholipid bilayers were prepared using the thin-film dehydration-rehydration method obtaining, multilamilar vesicles (MLVs) and small unilamellar vesicles (SUVs) (Bangham et al., J. Mol. Biol. 13:238-252 (1965); Gosangari & Watkin, Pharm Dev Technol. 17:383-8 (2012)). Using thin-film hydration method, briefly, required amounts of lipids [1,2-Dipalmitoyl-sn-glycero-3-phosphocholine (DPPC) liposomes and 1, 2-distearoyl-snglycero- 3-phosphocholine (DSPC)] were dissolved in chloroform, and a thin film will be formed on the inner side of the round bottom flask, by evaporating the solvent under vacuum using a rotavapor. The lipid film formed was stored overnight in vacuum desiccator to eliminate traces of chloroform. The film was then hydrated at 58° C., above the Tc of DSPC, using 10 mL of phosphate-buffered saline (PBS, 20 mM […], 150 mM NaCl, pH 7.0) containing different concentration of Oxamyl. […] The unencapsulated oxamyl was then separated using Sephadex G-50 macrospin columns and the encapsulation efficiency was calculated spectrophotometrically at 280 nm. […]
M. incognita eggs collected from tomato cultures by NaOC1 extraction (Hussey & Barker, Plant Disease Reporter. 57:1025-1028 (1973)). […] The juveniles (J2) were counted and evaluated for activity/mobility for the duration of the study. […]

[2] = Abamectin or liposomal abamectin applied to soil prior to planting: gall formation, root necrosis, root length; format: in vivo
Protocol: Abamectin at 5μg or 1μg was directly applied to soil prior to planting. Alternatively abamectin was loaded into liposomes at either 5μg or 1 μg and applied to soil prior to planting. Gall formation was detected. […] Therefore, liposomal abamectin formulations enhance root length as compared to non-liposomal abamectin formulations.

nematode = conditions: comparison figure; cited from earlier work

## BrCCBr [EDB, ethylene dibromide]
[1]
  population killed: 75%
Citrus nematode
  survival: did not survive

## CS/C(C)=N\OC(=O)N(C)SN(C)C(=O)O/N=C(\C)SC [Larvin (Thiodicarb), Thiodicarb]
Root-Knot larvae (J2); 200 ug
  Root-Knot larvae (J2) Alive: 76 and 86 and 89
  Root-Knot larvae (J2) Dead: 23 and 14 and 11
Root-Knot larvae (J2); 1 mg
  Root-Knot larvae (J2) Alive: 75 and 82 and 63
  Root-Knot larvae (J2) Dead: 25 and 18 and 37
Root-Knot larvae (J2); 2 mg
  Root-Knot larvae (J2) Alive: 70 and 85 and 65
  Root-Knot larvae (J2) Dead: 30 and 15 and 35
Root-Knot larvae (J2); 10 mg
  Root-Knot larvae (J2) Alive, non-mobile: 70 non-mobile and 80 non-mobile
  Root-Knot larvae (J2) Dead: 30 (2×) and 20
Root-Knot larvae (J2); compared with Oxamyl, reason for elimination
  concentration required to kill Root-Knot (J2): required higher concentration to kill Root-Knot (J2)

## CNC(=O)O/N=C(\SC)C(=O)N(C)C [Oxamyl (Vydate), Methyl N′N′-dimethyl-N-[(methylcarbamoyl)oxy]-1-thiooxamimidate]
Root-Knot larvae (J2); 200 ug
  Root-Knot larvae (J2) Alive, non-mobile: 60 non-mobile and 58 non-mobile and 50 non-mobile
  Root-Knot larvae (J2) Dead: 40 and 42 and 50
Root-Knot larvae (J2); 1 mg
  Root-Knot larvae (J2) Alive: 0
  Root-Knot larvae (J2) Dead: 100
Root-Knot larvae (J2); 2 mg
  Root-Knot larvae (J2) Alive: 0
  Root-Knot larvae (J2) Dead: 100
Root-Knot larvae (J2); 10 mg
  Root-Knot larvae (J2) Alive: 0
  Root-Knot larvae (J2) Dead: 100
Root-Knot larvae (J2); Meloidogyne incognita, 100 ug/ml
  mortality at 100 µg/mL: 100%
Root-Knot larvae (J2); Meloidogyne incognita, 200 ug/ml
  mortality at 200 µg/mL: 100%
root-knot nematodes
  state of larvae: dead or paralyzed

## abamectin [non-liposomal abamectin]
[2]; 1 μg applied to soil prior to planting, FIG. 3
  gall formation: most gall formulation
[2]; 5 μg applied to soil prior to planting, FIG. 4
  root necrosis: most root necrosis
nematode
  amount of abamectin needed to treat nematodes when not encapsulated by liposomes: about 2982 mg/acre

— patent US20160270400A1, “Liposome-Attractant Formulations” (priority 2013, published 2016)
